The values that follow come from US20250320198A1, “SALT OF ENDOTHELIN A (ETA) RECEPTOR ANTAGONIST COMPOUND, AND PREPARATION METHOD THEREFOR AND MEDICAL USE THEREOF” (SHENZHEN SALUBRIS PHARMACEUTICALS CO., LTD, priority 2022, published 2025).

SMILES strings stand for the structures.

Series [1] can be described thus: Research on compound microsome: prototype remaining and transformation to Atrasentan in human liver microsomes (+NADPH). To be noted: for Prototype remaining quantity (%) Mean: human liver microsome (+NADPH), 37° C. Type of series: in vitro ADME. On the procedure: Human liver microsomes were all purchased from Rild Liver Disease Research (Shanghai) Co., Ltd.
Reagents: dimethyl sulfoxide (DMSO), acetonitrile, formic acid, and propranolol (internal standard) are all commercially available.
Instrument: Thermo Fisher Scientific LC-MS (U300 UPLC, TSQ QUANTUMN ULTRA triple quadrupole mass spectrometer).
A certain amount of compound was precisely weighed and dissolved in DMSO to prepare a 10 mM stock solution, and the stock solution was diluted with a diluent (ACN:H2O=1:1) to a 100 μM working solution, and then diluted with a 0.1 M potassium phosphate buffer solution to a 3 μM administration solution for later use. 75 μL of liver microsomes were taken and added into 925 μL of a 0.1 M potassium phosphate buffer solution to be mixed uniformly to obtain a 1.5 mg/mL liver microsome suspension, and the liver microsome suspension was pre-incubated at 37° C. for 10 minutes. Preparation at 0 o'clock: 15 μL of the above liver microsome suspension was taken and added into a 6 mM NADPH solution, 150 μL of a propranolol acetonitrile solution was added immediately for precipitation, and then 15 μL of the above administration solution was added and mixed uniformly for later use. Preparation of samples at 20 minutes and 60 minutes: 15 μL of the administration solution was taken, 15 μL of the liver microsome suspension and 15 μL of the 6 mM NADPH solution were added and mixed uniformly, and a mixture was incubated at 37° C. for 20 minutes and 60 minutes, respectively. The preparation of the above samples was carried out using dual-pore parallel operation. When the above samples are incubated to the relevant time point, 150 μL of the propranolol acetonitrile solution was added to terminate the reaction. All the above samples were centrifuged at 4000 rpm for 5 minutes, and 100 μL of a supernatant was taken, added into 100 μL of ultrapure water and mixed uniformly for LC-MS/MS analysis. LC-MS/MS detection conditions are as follows:
Chromatographic column: Waters ACQUITY™ PREMIER HSS T3, 50*2.1 mm, 1.8 μm.
(§1) Mobile phase: water (0.1% formic acid)—acetonitrile. Perform gradient elution according to the table below.
An initial 0 o'clock was taken as 100%, a relative residual content of the drug at each time point was calculated, and each time point of Atrasentan was taken as 100% to calculate the relative amount of transformation of the compound in the embodiment to Atrasentan.

Series [2] in a line: Pharmacokinetic study of compound in rats (Embodiment 13), intragastric administration. To be noted: SD rats. Type of series: in vivo.
Text: SD rats: male, 200-300 g, purchased from Beijing Vital River Laboratory Animal Technology Co., Ltd.
Reagents: dimethyl sulfoxide (DMSO), polyethylene glycol 400 (PEG-400), normal saline, heparin, acetonitrile, formic acid, and propranolol (internal standard) are all commercially available.
Instrument: Thermo Fisher Scientific LC-MS/MS (U300 UPLC, TSQ QUANTUMN ULTRA triple quadrupole mass spectrometer).
The compound was weighed and dissolved in a DMSO-PEG-400-normal saline (5:60:35, v/v/v) system. After intragastric administration to rats, 200 μL of venous blood was collected in a sodium-fluoride heparinized EP tube at 15 minutes, 30 minutes, 1 hour, 2 hours, 5 hours, 7 hours, and 24 hours after administration and centrifuged at 12000 rpm for 2 minutes. Plasma was taken and frozen and preserved at −80° C. for testing. A certain amount of samples for test was precisely weighed and dissolved in DMSO to 2 mg/mL as a stock solution. An appropriate amount of compound stock solution was accurately sucked, and diluted by adding acetonitrile to prepare a standard series solution. 20 μL of each of the above standard series solution was accurately sucked, 180 μL of blank plasma was added, and vortex mixing was performed to prepare plasma samples equivalent to plasma concentrations of 1 ng/mL, 3 ng/mL, 5 ng/mL, 10 ng/mL, 30 ng/mL, 100 ng/mL, 300 ng/mL, 1000 ng/mL, and 3000 ng/mL. Dual sample analysis was performed for each concentration to establish a standard curve. 30 μL of plasma was taken, 200 μL of an acetonitrile solution of internal standard propranolol (50 ng/mL) was added, vortex mixing was performed, then 100 μL of purified water was added, vortex mixing was performed again, a mixture was centrifuged at 4000 rpm for 5 minutes, and a supernatant was taken for LC-MS/MS analysis. LC-MS/MS detection conditions are as follows: Chromatographic column: Waters ACQUITY™ PREMIER HSS T3, 50*2.1 mm, 1.8 μm.
as §1
After LC-MS/MS detection of blood drug concentration, WinNonlin 6.1 software was used to calculate pharmacokinetic parameters using a non compartmental model method.

Consider `CCCCN(CCCC)C(=O)CN1C[C@H](c2ccc3c(c2)OCO3)[C@@H](C(=O)OC(C)OC(=O)OCCO)[C@@H]1c1ccc(OC)cc1` (stereo partly drawn) [Compound 8, 1-(((2-hydroxyethoxy)carbonyl)oxy)ethyl-(2R,3R,4S)-4-(benzo[d][1,3]dioxolane-5-yl)-1-[2-(dibutylamino)-2-oxoethyl]-2-(4-methoxyphenyl)pyrrolidine-3--carboxylate], for which the results for the “Prototype remaining quantity (%) Mean” value in series [1] (time 0 min (taken as 100%)), in series [1] (time 20 min) and in series [1] (time 60 min) were 100.0%, 0.04% and 0.03%, respectively.

For `CCCCN(CCCC)C(=O)CN1C[C@H](c2ccc3c(c2)OCO3)[C@@H](C(=O)OC(C)OC(=O)OCCNC)[C@@H]1c1ccc(OC)cc1` (stereo partly drawn) [Compound 5, 1-(((2-(methylamino)ethoxy)carbonyl)oxy)ethyl-(2R,3R,4S)-4-(benzo[d][1,3]dioxolane-5-yl)-1-[2-(dibutylamino)-2-oxoethyl]-2-(4-methoxyphenyl)pyrrolidine-3-carboxylate], the “Prototype remaining quantity (%) Mean” value in series [1] (time 0 min (taken as 100%)) is listed as 100.0%; in series [1] (time 20 min), 0%; in series [1] (time 60 min) it was 0%.

`CCCCN(CCCC)C(=O)CN1C[C@H](c2ccc3c(c2)OCO3)[C@@H](C(=O)OCOC(=O)OCC)[C@@H]1c1ccc(OC)cc1` [Compound 1, 1-[(ethoxycarbonyl)oxy]methyl-(2R,3R,4S)-4-(benzo[d][1,3]dioxolane-5-yl)-1-[2-(dibutylamine)-2-oxoethyl]-2-(4-methoxyphenyl)pyrrolidine-3-carboxylate]: the “Prototype remaining quantity (%) Mean” value is 100.0% in series [1] (time 0 min (taken as 100%)), 0.5% in series [1] (time 20 min) and 0.7% in series [1] (time 60 min).

Consider `CCCCN(CCCC)C(=O)CN1C[C@H](c2ccc3c(c2)OCO3)[C@@H](C(=O)OC(C)OC(=O)OC[C@H]2COCCO2)[C@@H]1c1ccc(OC)cc1` (stereo partly drawn) [Compound 9, 1-(((((R)-1,4-dioxane-2-yl)methoxy)carbonyl)oxy)ethyl-(2R,3R,4S)-4-(benzo[d][1,3]dioxolane-5-yl)-1-[2-(dibutylamino)-2-oxoethyl]-2-(4-methoxyphenyl)pyrrolidine-3-carboxylate], for which the “Prototype remaining quantity (%) Mean” value in series [1] (time 0 min (taken as 100%)) is on record as 100.0%; in series [1] (time 20 min), 0.1%; in series [1] (time 60 min), 0.0%.

Regarding `CCCCN(CCCC)C(=O)CN1C[C@H](c2ccc3c(c2)OCO3)[C@@H](C(=O)OC(C)OC(=O)OC[C@@H](O)CO)[C@@H]1c1ccc(OC)cc1` (stereo partly drawn) [Compound 6, 1-((((S)-2,3-dihydroxypropoxy)carbonyl)oxy)ethyl-(2R,3R,4S)-4-(benzo[d][1,3]dioxolane-5-yl)-1-[2-(dibutylamino)-2-oxoethyl]-2-(4-methoxyphenyl)pyrrolidine-3-carboxylate], the “Prototype remaining quantity (%) Mean” value in series [1] (time 0 min (taken as 100%)) amounted to 100.0%; in series [1] (time 20 min), 0.0%; in series [1] (time 60 min), 0.7%.

Consider `CCCCN(CCCC)C(=O)CN1C[C@H](c2ccc3c(c2)OCO3)[C@@H](C(=O)OC(C)OC(=O)OC[C@@H]2COCCO2)[C@@H]1c1ccc(OC)cc1` (stereo partly drawn) [Compound 11, 1-(((((S)-1,4-dioxane-2-yl)methoxy)carbonyl)oxy)ethyl-(2R,3R,4S)-4-(benzo[d][1,3]dioxolane-5-yl)-1-[2-(dibutylamino)-2-oxoethyl]-2-(4-methoxyphenyl)pyrrolidine-3-carboxylate], for which the results for the “Prototype remaining quantity (%) Mean” value in series [1] (time 0 min (taken as 100%)), in series [1] (time 20 min) and in series [1] (time 60 min) were 100.0%, 0.5% and 0.0%, respectively.

As to `CCCCN(CCCC)C(=O)CN1C[C@H](c2ccc3c(c2)OCO3)[C@@H](C(=O)OC(C)OC(=O)OC(C)C)[C@@H]1c1ccc(OC)cc1` (stereo partly drawn) [Compound 3, 1-[(isopropoxycarbonyl)oxy]ethyl-(2R,3R,4S)-4-(benzo[d][1,3]dioxolane-5-yl)-1-[2-(dibutylamino)-2-oxoethyl]-2-(4-methoxyphenyl)pyrrolidine-3-carboxylate], the “Prototype remaining quantity (%) Mean” value was found to be 100.0% in series [1] (time 0 min (taken as 100%)), 0.04% in series [1] (time 20 min) and 0.06% in series [1] (time 60 min). The “Conversion into Atrasentan in human microsomes (in words)” value in series [1] (human liver microsomes) is “fully converted into Atrasentan”. Also, in series [2], the “Absorption after intragastric administration compared with Atrasentan (in words)” value was “better than that of Atrasentan”. Also, the “Exposure level in rats compared with the same dosage of Atrasentan (in words)” value in series [2] is recorded as “higher than those of the same dosage of Atrasentan”.

On to `CCCCN(CCCC)C(=O)CN1C[C@H](c2ccc3c(c2)OCO3)[C@@H](C(=O)O)[C@@H]1c1ccc(OC)cc1` [Atrasentan, (2R,3R,4S)-4-(benzo[d][1,3]dioxolan-5-yl)-1-[2-(dibutylamino)-2-oxoethyl]-2-(4-methoxyphenyl)pyrrolidine-3-carboxylic acid, reference compound], for which the “Prototype remaining quantity (%) Mean” value in series [1] (time 0 min (taken as 100%)) was 100.0%; in series [1] (time 20 min), 83.3%; in series [1] (time 60 min), 50.3%.

On to `CCCCN(CCCC)C(=O)CN1C[C@H](c2ccc3c(c2)OCO3)[C@@H](C(=O)OC(C)OC(=O)OCC)[C@@H]1c1ccc(OC)cc1` (stereo partly drawn) [Compound 2, 1-[(ethoxycarbonyl)oxy]ethyl(2R,3R,4S)-4-(benzo[d][1,3]dioxolane-5-yl)-1-[2-(dibutylamino)-2-oxoethyl]-2-(4-methoxyphenyl)pyrrolidine-3-carboxylate], for which the “Prototype remaining quantity (%) Mean” value in series [1] (time 0 min (taken as 100%)) was 100.0%; in series [1] (time 20 min) it was 67.8%; in series [1] (time 60 min), 1.6%.

Consider `CCCCN(CCCC)C(=O)CN1C[C@H](c2ccc3c(c2)OCO3)[C@@H](C(=O)OC(C)OC(=O)OC2COC2)[C@@H]1c1ccc(OC)cc1` (stereo partly drawn) [Compound 10, 1-((((oxetane-3-yl)oxy)carbonyl)oxy)ethyl-(2R,3R,4S)-4-(benzo[d][1,3]dioxolane-5-yl)-1-[2-(dibutylamino)-2-oxoethyl]-2-(4-methoxyphenyl)pyrrolidine-3-carboxylate], for which the “Prototype remaining quantity (%) Mean” value turned out to be 100.0% in series [1] (time 0 min (taken as 100%)), 0.0% in series [1] (time 20 min) and 0.0% in series [1] (time 60 min).

On to `CCCCN(CCCC)C(=O)CN1C[C@H](c2ccc3c(c2)OCO3)[C@@H](C(=O)OC(C)OC(=O)OC)[C@@H]1c1ccc(OC)cc1` (stereo partly drawn) [Compound 4, 1-[(methoxycarbonyl)oxy]ethyl-(2R,3R,4S)-4-(benzo[d][1,3]dioxolane-5-yl)-1-[2-(dibutylamino)-2-oxoethyl]-2-(4-methoxyphenyl)pyrrolidine-3-carboxylate], for which the “Prototype remaining quantity (%) Mean” value in series [1] (time 0 min (taken as 100%)) stood at 100.0%; in series [1] (time 20 min), 0%; in series [1] (time 60 min), 0%. Besides, the “Absorption after intragastric administration compared with Atrasentan (in words)” value in series [2] is listed as “better than that of Atrasentan”. In addition, the “Exposure level in rats compared with the same dosage of Atrasentan (in words)” value in series [2] is reported as “higher than those of the same dosage of Atrasentan”.
